Measured values: ChEMBL document CHEMBL3507680, “University of Dundee, Gates Library screen for HepG2 cell viability”

Experiment: Human HepG2 cell viability assay in 384 well format
Format: toxicity, cell-based
Design: dose 125 nL, time 70.5 hour; concentration not given beside the values
Conditions: HepG2 cells, read-out: Inhibition

SMILES | cytotoxicity at 70.5 h [%]
CCc1cc(C(F)(F)F)n2nc(C3CCCN3C(=O)COC)cc2n1 (stereo not given) | -4.23
Cc1occc1C(=O)N1CCc2ncnc(C3CCOC3)c2CC1 (stereo not given) | -12.9
COc1cc(C2CC(=O)Nc3c2c(=O)[nH]n3C2CCCCC2)ccc1O (stereo not given) | -12.4
CC(C(=O)N1CCc2ccccc2C1)n1cc(Br)cn1 (stereo not given) | -13.3
CCN1CCOC(CNCc2ccccn2)C1 (stereo not given) | -7.88
O=C(CN1CCOC1=O)N1CCC2(CCc3ccccc32)CC1 | 7.69
CC(O)CN1CCN(C(=O)c2cnn(-c3ccccc3F)c2)CC1 (stereo not given) | -6.92
COc1cccc(NC(=O)N(CCC(F)(F)F)C[C@H](O)CO)c1 | -4.42
Cc1cccc(CN2C[C@@H](C)[C@@]3(CCN(CC(=O)N(C)C)C3=O)C2)c1 | -10
CC(C(=O)N1CCCC1)N1CCN(c2ncc(Cl)cn2)CC1 (stereo not given) | -3.08
CC(C)n1[nH]c(=O)c2c1NC(=O)CC2c1ccc(C#N)cc1 (stereo not given) | 18.7
c1ccc(CN2CCC(Cc3noc(C4CC4)n3)CC2)cc1 | -5.84
O=C(c1ccccc1O)N1CCn2c(nnc2C(F)(F)F)C1 | -1.13
CN(CC(=O)NCC(=O)Nc1ccc(F)cc1)Cc1cccs1 | -20.9
COc1cccc(-c2n[nH]c3c2CN(C(=O)c2oc(C)cc2C)CC3)c1 | -0.91
Cc1cccc(-c2nnc(C(C)N3CCn4c(C)nnc4C3)o2)c1 (stereo not given) | -12.4
Cc1nccn1-c1ccc(N2CCC(NC(C)CC(C)C)CC2)cc1 (stereo not given) | 10.6
CCc1[nH]ncc1C(=O)N1CCCC(n2cccn2)C1 (stereo not given) | 3.94
Cc1ccc(S(=O)(=O)N2CC[C@@H]3C[C@H](NC(=O)c4n[nH]cc4Cl)[C@@H]32)cc1 | -1.23
CC(=O)N[C@@H]1CN(Cc2ccccc2C(=O)O)C[C@H]1C(C)C | 0.633
CC(C)c1ncc2c(n1)CN(Cc1nc(-c3cccnc3)no1)CC2 | 13.2
Cc1cnn(CC(C)NCc2ccncc2)c1 (stereo not given) | 0.737
Cc1nc(CN)cc(N2CCC(O)(c3ccc(Cl)cc3)CC2)n1 | -1.91

SMILES | cytotoxicity at 70.5 h [%]
N#Cc1cnc2ccccc2c1N1CCC(C(=O)O)CC1 | -4.5
Cc1cnn(CCNCc2csc(-c3ccc(C)o3)n2)c1 | 19.9
CO[C@H]1C[C@@H](O)C12CCN(CCCOc1ccc(C(N)=O)cc1)CC2 | -2.22
COCCC1(C(=O)O)CCCN(C(=O)c2cnc3c(c2)CCCC3)C1 (stereo not given) | -14.8
O=C(CN1CCCCC1=O)N1CCC2(CC1)[C@H](O)C[C@@H]2O | -3.31
O=C(C1CCCc2[nH]ncc21)N1CCCCCC1 (stereo not given) | -7.74
Cc1ccc(C(=O)N(Cc2ccc(F)cc2F)C2CC2)c(=O)[nH]1 | -2.76
COc1c(NS(=O)(=O)c2ccc(F)c(C)c2)c(C)nn1C | 0.334
Cc1nc(CN2C[C@@H]3CN(C(=O)c4cccn4C)C[C@@H]3C2=O)cs1 | -3.56
CCCc1n[nH]c(C2CN(C(=O)c3ccc(C)[nH]c3=O)CCO2)n1 (stereo not given) | 15.4
COCC(NC(=O)c1cc[nH]n1)c1cccc(C(F)(F)F)c1 (stereo not given) | -0.606
Cc1c(C(=O)NC2CC(C)(C)NC(C)(C)C2)cnn1-c1ccc(F)cc1 | -2.72
OCCNc1nc(NCc2cccnc2)nc2nccnc12 | 16.3
CCN1Cc2cc(F)ccc2N(C(C)=O)CCC1=O | -3.82
COCCNC(=O)c1cc(C(C)C)nc(N2CCCCC2)n1 | -9.32
COc1ccc(-n2cnnc2SCCC#N)cn1 | -4.7
CC(C)CCN1CCNC(=O)C1CC(=O)NCCc1cc(O)ncn1 (stereo not given) | -11
COCC[C@]1(O)CCN(C2CCN(C(=O)C3CCC3)CC2)C[C@H]1C | -9.1
Cc1cc(=O)[nH]c(-n2nc(C3CC3)cc2N)n1 | 29.2
O=S(=O)(c1ccccc1F)N1CCCCC1c1cc[nH]n1 (stereo not given) | -5
COCCn1cc(NCc2cn(C)nc2-c2ccncc2)cn1 | 21.2
CCCc1nc(CNc2ccc(F)c(F)c2)no1 | 14.6
CC(C)c1nc2n(n1)CC(NCc1nnnn1C1CC1)CC2 (stereo not given) | -5.21

SMILES | cytotoxicity at 70.5 h [%]
C[C@]1(O)CN(CCO)CC[C@@H]1Oc1cccc(F)c1 | -2.99
O=S1(=O)N(c2ccccc2)C[C@@H](O)[C@]12CCNC2 | -3.92
Cc1cc(C(=O)NCc2ccc(N3CCCC(C(N)=O)C3)cc2)on1 (stereo not given) | -3.31
Cc1ccc(-n2nnc(C(=O)NCC(F)(F)F)c2C2CC2)cc1 | -5.02
Cc1cc(-n2cccn2)ccc1CN1C[C@@H](CN(C)C)[C@@H](CO)C1 | -8.41
O=C(c1ccsc1)N1CC(C(=O)N2CCOCC2)C2(CCOCC2)C1 (stereo not given) | -1.97
O=C(NCCc1cccs1)NCC(O)c1cccc(F)c1 (stereo not given) | -7.4
CC(C)(C)NC(=O)C1CSCN1C(=O)CCc1ccco1 (stereo not given) | -0.786
O=C(NC1CCCN(c2ccc(OC(F)F)cc2)C1)c1cnccn1 (stereo not given) | -6.56
Cc1nc2n(n1)CC(NCc1cc(Cl)c3c(c1)OCCO3)CC2 (stereo not given) | -4.92
COCCNC(=O)Cn1c(-c2cccc(F)c2)nc(C)c(CCO)c1=O | -7.96
Cc1cc(=O)n2ncnc2n1CC(O)c1ccc(F)cc1F (stereo not given) | -16.6
CCN1CCN(Cc2c(-c3ccco3)[nH]c3ncccc23)CC1 | -3.87
O=C(O)c1cccnc1CN1CCCCC1CCc1ccccn1 (stereo not given) | -14.4
CN(C)CCNC(=O)c1cc(-c2cnc(N3CCOCC3)nc2)cn1C | -8.38
CN1CCCC(c2cccc(CCC(N)=O)n2)C1 (stereo not given) | -3.92
O=C(c1ccccc1N1CCOCC1)N1CCCC(n2ccnc2)C1 (stereo not given) | -6.72
OC[C@H]1CC[C@]2(CC1)CN(Cc1ccccc1F)Cc1ccccc1O2 | -3.44
CC(C)N(C(=O)CCc1cccc(F)c1)C1CCOCC1 | -4.3
CC(C)(C)CN1CCC[C@H]1c1nc(-c2cncnc2N)no1 | -0.753
Cc1ccc(C)c(OC(C)C(=O)NCc2cccnc2)c1 (stereo not given) | -5.32
COCCCC1CCCCN1Cc1cnn(C)c1C1CC1 (stereo not given) | -2.6
COCCC(=O)Nc1cc(CC(C)(C)C)n[nH]1 | -6.88

SMILES | cytotoxicity at 70.5 h [%]
NC(=O)c1cn[nH]c1NC(=O)c1ccc2c(c1)OCO2 | 1.1
COc1ccccc1C1(CNc2cc(C(=O)N(C)C)ccn2)CC1 | 0.399
Cc1ncsc1CN1C[C@@H](OCC2CC2)[C@H]2OCCC[C@H]21 | -5.13
CN(Cc1cn2c(n1)CN(CC1CC1)CC2)Cc1ccco1 | -11.8
COc1cccc(COCC(=O)N2CCCC2Cn2cccn2)c1 (stereo not given) | -11.8
CC(=O)N1CCn2c(nnc2C2CCCCN2Cc2ccccc2Cl)C1 (stereo not given) | -3.34
CC(C)COC(C)C(=O)N1CCCCCC1 (stereo not given) | -8.79
CCCc1cc(CNC(=O)Cc2cc(C)no2)on1 | 1.19
CC(=O)N1CCc2[nH]nc(C(=O)N3CCOCC3)c2C1 | -4.57
CCOC(=O)N1CCC2(CC1)N=C(CCC(C)C)NC2=O | -1.58
COc1ccccc1CCN(C)Cc1nc(N)nc(N(C)C)n1 | -11.2
CC(C)c1nc(C2CCCN2c2ncc(C(N)=O)cc2Cl)no1 (stereo not given) | 12.4
CNC(=O)c1cn(C)c(-c2nc3cc(NC(C)=O)ccc3n2C)c1OC | -17.5
CCc1nc(CCNc2ccc(S(N)(=O)=O)cc2C#N)cs1 | -21
Cc1noc(C2CCN(C(=O)CCc3nccs3)CC2)n1 | 21.5
CCc1nc(C2CCCN2C(=O)c2c[nH]c(C)n2)no1 (stereo not given) | 27.8
Cn1c(SCc2noc(C(C)(C)C)n2)nnc1C1CCS(=O)(=O)C1 (stereo not given) | -7.06
CN(Cc1ccsc1)C(=O)c1ccc(F)c(NS(C)(=O)=O)c1 | -3.77
CCOCCC(=O)N(Cc1ccncc1)C(C)CC (stereo not given) | 20.8
O=C1CN(Cc2cn(CC3CCN(C4CCSCC4)CC3)nn2)CCN1 | 20.3
Cn1cc(C2COC3(CCN(C(=O)c4cccn4C)CC3)C2)cn1 (stereo not given) | 14.2
CCN(CC)CC(=O)N1CCN(CCCc2ccncc2)CC1 | -0.476
CC(=O)Nc1nc(C(=O)N2CCCC2c2ccccc2C)cs1 (stereo not given) | -19.1

SMILES | cytotoxicity at 70.5 h [%]
Cc1ccc(S(N)(=O)=O)cc1C(=O)NC1CCN(C2CC2)CC1 | 21.9
COc1cc(OC)cc(C(=O)N(C)Cc2nnc3ccccn23)c1 | -1.71
COc1ccccc1C(NC(=O)NC1CC1)c1noc(C)n1 (stereo not given) | -9
CC(C)(C)C(=O)Nc1cnn(-c2ccccc2S(C)(=O)=O)c1 | -9.09
CCOC(=O)NCCNC(=O)c1cc(Br)cn1C(C)C | 9.21
CN(Cc1cc[nH]n1)C(=O)c1cn(Cc2c(F)cccc2F)nn1 | -8.9
CCOCC1CN(S(=O)(=O)C2CC2)Cc2nn(C)cc21 (stereo not given) | -5.98
CC(C)(C)NC(=O)c1ccn(COc2c(Cl)cccc2Cl)n1 | -0.674
Cc1cccc(C(C)NCC2CCS(=O)(=O)CC2)c1 (stereo not given) | -3.65
Cc1nc2ccc(CN3CC4(CCOC4)CCC3=O)cc2[nH]1 (stereo not given) | -1.05
CCOc1cccc(C(=O)N2CCN(c3nccc(OC)n3)CC2)c1 | 23.4
O=C(O)COc1ccccc1CN1CCCC1c1cnccn1 (stereo not given) | -9.06
c1cncc(CN(CCCn2ccnc2)CC2CCOC2)c1 (stereo not given) | -1.27
CCCc1nncn1-c1cc(OC)ccc1OC | -1.39
Cc1nnc2ccc(N3CCC4(CCOC4)C3)nn12 (stereo not given) | -3.17
CC(=O)NCCNC(=O)c1cccc(Cn2nc(C)cc2C)c1 | -1.57
Cc1cc(C)nc(N2CCC(NCCSc3nnnn3C)CC2)n1 | 11.2
CCNC(=O)N1CCC2(CC1)CCn1c(-c3ccccc3)cnc12 | -3.37
CN(C)CCn1ccc(NC(=O)NC(C)(C)c2nccs2)n1 | -12.6
Cn1nc(CO)c2c1CCN(c1ncnc3c1CCNCC3)C2 | -6.13
CCN1CCC2(CC1)CC(NC(=O)N(C)C)c1cc(C)ccc12 (stereo not given) | 1.47
CS(=O)(=O)N1CCC(C(=O)N2CCN(Cc3cccc(Cl)c3)CC2)CC1 | -8.76
CC(C)c1nccn1CC1CCCN1Cc1nc2ccccc2n1C (stereo not given) | -10.4
